# Assay results from patent US20020110808A1, “Toxicant-induced differential gene expression” (priority 2000, published 2002).
# Columns and labels:
# HepG2 cells [1] = assay: BrdU incorporation cell proliferation assay; assay type: cell-based; conditions: Homo sapiens
# Procedure: HepG2 cells (see e.g., Aden et al., Nature 282:615-616 (1979)) (ATCC HB-8065) were maintained in DMEM/F-12 medium with 10% fetal bovine serum and 1% antibiotic/antimycotic. For routine culturing and mRNA preps, cells were grown in 75 cm^2 flasks and split every 4-5 days. For plate assays, cells were plated in 96-well microtiter plates at 1×10^5 cells per well in 100 μl of growth medium.
# Depending on the desired exposure time, cell treatments began 3 or 4 days after splitting or plating. At this time, the cells were near or at confluency. […] Cell treatments were at 37° C.
# Uptake of 5-bromo-2′-deoxyuridine (BrdU) was measured using the Cell Proliferation ELISA kit from Boehringer-Mannheim (Indianapolis, Ind.).
# Cell proliferation assays based on measurement of BrdU incorporation were performed according to the manufacturer's instructions (Boehringer Mannheim “Cell Proliferation ELISA Kit”).
# HepG2 cells [2] = assay: Dot blot array expression assay; conditions: 24 hr, two-fold threshold
# Procedure: The quality of the PCR reactions was assessed by agarose gel electrophoresis. Human genomic DNA (Clontech) and PCR products were robotically dotted in 100 nl aliquots onto positively-charged nylon membranes using the BioDot instrument (Cartesian Technologies, Inc.). After uv-crosslinking, the membranes were rinsed in 2× SSC and allowed to air-dry. Prior to addition of labeled cDNA probes, membranes were washed in boiling 1% SDS, rinsed with 6× SSC, and incubated in 5 mL of 42° C. Microhyb solution (Research Genetics) for 2 hr. Ten minutes prior to addition of the probes, the Microhyb solution was replaced with an equal amount of fresh 42° C. Microhyb solution containing denatured human Cot-1 DNA (Gibco BRL) and poly(dA) primer (Research Genetics) (both at final concentrations of 1 ng/μl).
# For each reverse transcription reaction, 2 μg of mRNA was incubated with oligo(dT) primer (200 ng/μl) at 70° C. for 10 minutes. Tubes were chilled and spun briefly. The following reagents (with the final concentrations in parentheses) were added: first strand buffer (1×), DTT (10 mM), dNTP mix (1 mM each of dATP, dGTP, dTTP), [α-^33P]dCTP (3.3 μCi/μl) and Superscript II Reverse Transcriptase (10 units/μL). The samples were kept at 37° C. for 1.5 hr. Unincorporated nucleotides were removed by spinning the reaction mixture through a G-50 column. […] Probe quality was assessed by electrophoresis on a 10% denaturing polyacrylamide minigel. Denatured probes were added directly to the Microhyb solution and hybridized overnight at 42° C. Membranes were washed twice under each of the following conditions: (1) 2× SSC/0.1% SDS at room temperature, 5 min; (2) 0.2× SSC/0.1% SDS at room temperature, 5 min; (3) 0.2× SSC/0.1% SDS at 42° C., 15 min, (4) 0.1× SSC/0.1% SDS at 68° C., 15 min. Membranes were then rinsed briefly in 2× SSC at room temperature, covered with Saran wrap, and exposed to storage phoshpor screens. After three days, screens were scanned using a Storm phosphorimager (Molecular Dynamics). Images were analyzed using ImageQuant software (Molecular Dynamics).
# We employed a rapid dot blot assay as a secondary screen for gene expression changes. We tested each of the unique clones against each of the three treatments. […] For these clones, the dot blot assay functioned not as a confirmation assay but as an initial screen for differential expression. Dot blots were prepared by robotically arraying subclone-derived PCR products in quadruplicate onto positively charged nylon membranes. […] In general, each dot consisted of over 80 ng of PCR product, as estimated by inspection of the PCR reactions run on agarose gels. This high quantity of DNA ensured that saturation of spots, with consequent loss of quantitation, would not occur. Spots of genomic DNA were included on each filter to allow normalization between control and treated sample intensities.
# HepG2 cells [3] = assay: cDNA array (GF200) expression profiling; assay type: cell-based, human; conditions: 20 mM acetaminophen, 16 mM caffeine, 100 mM thioacetamide
# Procedure: Cells were grown in DMEM/F12 medium with 10% fetal bovine serum in tissue culture flasks for 3 days following splitting, at which time they were at or near confluency. […] For each treated sample, an untreated control flask was set up with the same medium. Following the treatment period, mRNA was isolated by affinity purification on oligo(dT) cellulose resin using the Poly(A) Pure mRNA isolation kit from Ambion. RNA quality was assessed by agarose gel electrophoresis, and yields were determined by absorbance at 260 nm.
# Radiolabeled cDNA for array hybridizations were prepared as follows. To a solution of 2 μg of RNA in 8 μl DEPC-treated water was added 2 μl of 1 μg/μl oligo(dT) (10-20 mer mixture, Research Genetics). After incubation for 10 min at 70° C., the solution was chilled on ice for 2 min, and then added to 6 μl of 5× first strand buffer (250 mM Tris-HCl (pH 8.3), 375 mM KCl, 15 mM MgCl2; Gibco-BRL), 1 μl of 0.1M DTT, 1.5 μl dNTP mix (20 mM each dATP, dGTP and dTTP), 10 μl of 10 mCi/ml [α-^33P]dCTP (1000 Ci/mmol, Amersham), and 1.5 μl of 200 U/μl reverse transcriptase (Superscript II, Gibco-BRL). Following a 90 min incubation at 37° C., cDNA targets were purified by passage through G-50 Sephadex spin columns (Pharmacia) or Bio-Spin 6 columns (BioRad).
# GF200 cDNA arrays (Research Genetics) were washed in 0.5% boiling SDS for 5 min and prehybridized for 3 hrs at 42° C. in 5 ml MicroHyb solution (Research Genetics) containing 5 μl of 1 μg/ml poly(dA) (Research Genetics) and 5 μl of 1 μg/ml human Cot-I DNA (Gibco-BRL) that was denatured for 3 min at 100° C. prior to use. Labeled target nucleic acids, boiled for 3 min, were added directly, and hybridization was allowed to proceed for 16-18 hr at 42° C. in roller bottles in hybridization ovens. Arrays were washed twice in 2× SSC, 1% SDS at room temperature for 2 min, and then twice in 0.5× SSC, 1% SDS at 65° C. for 20 min. Arrays were exposed to storage phosphor screens for 3 days and scanned using a phosphorimager (Molecular Dynamics). Arrays were stripped for reuse by placing in boiling 0.5% SDS and then incubating for 1.5 hr with shaking at room temperature, allowing to solution to cool. After stripping, arrays were exposed to storage phosphor screens overnight to confirm loss of signal.
# Spot intensities were determined using Pathways software (Research Genetics). Data from quadruplicate sets of hybridizations were normalized by local regression using NLR software (Tom Kepler, North Carolina State University). Cluster analysis was carried out using the Clustan Graphics software package from Clustan Limited (Edinburgh).
smiles,measurement,setting,value
Cn1c(=O)c2c(ncn2C)n(C)c1=O [caffeine],inhibition at 16000 µM,"HepG2 cells [1]; HepG2, 24 h, read-out: Inhibition of BrdU uptake (cell proliferation)",67 to 80%
same,IC50,"HepG2 cells [1]; HepG2, read-out: IC50, BrdU incorporation in HepG2 cells",~6 mM
same,Number of 27 unconfirmed or non-matching clones showing an expression change,HepG2 cells [2],7
same,Number of genes with statistically significant (p<0.05) change in expression in three or more adjacent time points,HepG2 cells [3]; 1 to 24 hr time course,158
same,Global differential gene expression (rms) over time,HepG2 cells [3]; 1 to 24 hr,"few changes until 6 hr, after which overall differential expression is fairly constant"
